System: Sprague Dawley rats
Experiment: 26 week rat toxicity study: tolerability, clinical signs
Format: in vivo
Settings: 6 g/kg/day oral gavage, replaced with 3 g/kg/day
Experimental: The test and control items were administered to the appropriate animals by once daily oral gavage 7 days a week for a minimum of 26 weeks. The volume for each animal was based on the most recent body weight measurements. The doses were given using a syringe with attached gavage cannula. The first day of dosing was designated as Day 1. The dosing formulations were removed from the refrigerator and stirred for at least 30 minutes before dosing. The dosing formulations were also stirred continuously during dosing.
Due to the onset of clinical signs, including hunched posture, erect fur and abnormal gait and body weight loss, animals 3206M, 3515F and 3703F were given a dosing holiday from Day 45 and remaining Group 3 animals were given a dosing holiday from Day 48. Animals will start dosing at the lower dose level (3000 mg/kg/day) from Day 64. The following tables illustrate the treatments (Table 22) and animal groupings (Table 23) that were used in the study.
Mortality/moribundity checks were made daily. […] Animals were not removed from the cage during observation, unless necessary for identification or confirmation of possible findings.
Post-dose observations were made regularly throughout the day. […] The onset, intensity, and duration of these signs were recorded; particular attention was paid to the animals during and for the first hour after dosing.

CC/C=C\C[C@H](O)/C=C/C=C\C/C=C\C/C=C\CCCC(=O)OCC [DS102, 15(S)-hydroxy-(5Z,8Z,11Z,13E,17Z)-eicosapentaenoic acid ethyl ester]
tolerability of the highest dose: not well tolerated
